Laboratory results taken from US8637560B2, “Imidazolidinone compounds, methods to inhibit deubiquitination and methods of treatment” (The United States of America as Represented by the …, priority 2007, dated 2014).
Like-named read-outs stand apart in the source and are kept apart here. Residues, ends and D or L forms follow the SMILES beside them. *: point of attachment. Cbz = O=C(OCc1ccccc1)*

Columns and labels:
JEKO cells = assay: mRNA expression of BH3-domain proteins by quantitative RT-PCR
Protocol: The precipitated RNA was further purified by a RNA clean-up kit (Qiagen). The purified RNA was quantified, and used as template to synthesize cDNA. The expression of various genes was then determined by quantitative RT-PCR.

ATF6 = ATF6 activation in HeLa cells, immunoblotting; details: HeLa cells expressing Flag-tagged ATF6
Protocol: (E) HeLa cells expressing Flag-tagged ATF6 were treated with the indicated chemicals. Cell extracts were analyzed by immunoblotting. (F) HeLa cells expressing Flag-tagged ATF6 were treated with the indicated chemicals and stained with Flag antibodies. N, nucleus. Arrows indicate the position of the Golgi.

atx3 = assay: In vitro atx3-dependent deubiquitination of immunoprecipitated atx3-substrate complexes; format: biochemical; details: for effect on atx3-mediated deubiquitination when added to purified atx3-substrate complex: added in vitro; for deubiquitination of atx3-bound ubiquitin conjugates from treated cells: complex isolated from treated cells, compared with control cells
[1] = system: MHC class I heavy chain (HC); assay: Degradation of MHC class I heavy chain in US11-expressing astrocytoma (A9) cells, fractionation and immunoblot; format: cell-based
Protocol: . […] The cells were permeabilized in a buffer containing 0.028% of digitonin, and fractionated into a pellet fraction containing the ER membranes and a supernatant fraction containing the cytosol (Shamu et al., 1999; Ye et al., 2001, 2003). HC was immunoprecipitated from detergent extracts of these fractions under denaturing condition, and analyzed by immunoblotting (Shamu et al., 1999; Wang et al., 2006). […] As a positive control, A9 cells were treated with MG132, a proteasome inhibitor. […] However, a significant fraction of HC accumulated in MG132-treated cells was non-ubiquitinated species with its N-linked glycan removed by a cytosolic N-glycanase (Hirsch et al., 2003; Blom et al., 2004). The accumulation of non-modified substrates upon inhibition of the proteasome function has been observed for many proteasomal substrates, and was generally attributed to deubiquitination by cytosolic DUBs. […]

GFPμ = assay: Degradation of GFPμ in astrocytoma cells, immunoblot; format: cell-based; details: 12 h
Protocol: […]. Astrocytoma cells expressing HA-tagged GFPμ were treated with the indicated chemicals (12 h). The steady state levels of GFPμ in whole cell extracts (WCE) were analyzed by immunoblotting (IB). Where as indicated, GFPμ was first immunoprecipitated before immunoblotting analyses.
Since a large portion of p97 is localized in the cytosol, it may be involved in degradation of misfolded cytosolic proteins. In fact, GFPμ, a model proteasomal substrate (Bence et al., 2005) appeared to be degraded in a p97 dependent manner, because the expression of a dominant negative p97 mutant stabilized this substrate in part as a p97-associated form (data not shown).

TCRα-GFP = assay: Degradation of overexpressed TCRα-GFP, immunoblot
[2] = system: p97-associated deubiquitination (PAD); assay: In vitro deubiquitination of p97-bound substrates immunoprecipitated from treated cells; details: for effect on PAD: p97 complexes from treated cells
Protocol: To study PAD, a previously established in vitro deubiquitination assay was used. p97 and its associated substrates immunoprecipitated from cell extracts were incubated in vitro.

JEKO-1 cells = assay: Combination treatment of EerI and BH3 mimetic, MTT viability; details: 48 h
Protocol: Cell viability was measured by the MTT assay. […] JEKO-1 cells were treated with the indicated compounds for 48 h. Cell viability was measured by the MTT assay.

primary CLL cells = assay: MTT viability assay, primary CLL samples; format: cell-based; details: 3 days
Protocol: Experiments for FIGS. 1-5 were conducted in vitro by keeping cell lines in RPMI medium with 10% FCS and primary cells in AIM V medium. Cells were seeded into 96 well plates at a concentration of 4×10e5/ml for cell lines at a concentration of 5×10e6/mL for primary cells. Cells were incubated for 2 days (cell lines) or 3 days (primary samples) in the indicated concentration of drug (bortezomib from commercial clinical grade stock; EER1 provided by Dr. Ye and Dr. Trenkle). Viability was determined using the standard MTT assay. Synergy calculations were carried out with Calcusyn software.

[3] = system: recombinant retrovirus that expresses a GFP reporter gene; assay: Production of recombinant GFP retrovirus in GP293 packaging cells; format: cell-based; details: unidentified retrovirus, medium collected 36 hours later, GFP fluorescence in target cells, read-out: IC50 for inhibition of production of recombinant retrovirus
Protocol: […]. Infection was allowed to proceed for 10 hours before the medium was replaced with fresh medium. The expression of the GFP protein as a result of viral infection was measured by a fluorescence meter. […]. The IC50 was ˜3 uM.

[4] = system: polyubiquitinated proteins; assay: Accumulation of polyubiquitinated proteins in treated cells, immunoblot; format: cell-based; details: for accumulation of polyubiquitinated proteins in cells: EerI and structurally related analogues, FIG. 12C, D
NOXA = NOXA protein level by immunoblotting; format: cell-based; details: variety of cancer and transformed cell lines
Protocol: . […] Protein extracts were analyzed by immunoblotting. […] (D) NOXA knock-down cells.
; FIG. 16; data not shown).

MHC class I heavy chain = details: permeabilized US11 cells
Xbp1 mRNA = Xbp1 mRNA splicing by RT-PCR; details: JEKO-1 cells
eIF2α = eIF2α phosphorylation by immunoblotting; details: JEKO-1 cells

Compound: CC(C)C[C@H](NC(=O)[C@H](Cc1ccccc1)NC(=O)c1cnccn1)B(O)O [bortezomib, reference compound]
- mRNA expression of BH3-domain proteins Noxa, Bim and Puma (JEKO cells): only induces the expression of Noxa

Compound: O[C@H](CS)[C@H](O)CS (racemic) [DTT, dithiothreitol, reference compound]
- ATF6 cleavage (ATF6): rapidly induced the cleavage of ATF6

Compound: ubiquitin aldehyde [reference compound]
- effect on atx3-mediated deubiquitination when added to purified atx3-substrate complex (atx3): inhibited

Compound: CC(C)C[C@@H](C=O)NC(=O)[C@H](CC(C)C)NC(=O)[C@H](CC(C)C)NC(=O)OCc1ccccc1 [MG132, reference compound] (Cbz-Leu-Leu-Leu-aldehyde)
- deubiquitination of atx3-bound ubiquitin conjugates from treated cells (atx3): rapidly deconjugated
- polyubiquitinated HC in the cytosol ([1]; A9 cells, 10 μM): accumulation of polyubiquitinated HC in the cytosol
- form of GFPμ in treated cells (GFPμ): mostly accumulated in the deubiquitinated form
- polyubiquitinated TCRα-GFP (TCRα-GFP): polyubiquitinated TCRα-GFP was accumulated
- effect on PAD [2]: did not apparently block PAD

Compound: CC(C)C(C(=O)O)N1C(=O)/C(=C\c2ccc(Br)cc2)SC1=S (stereo not drawn) [BH3i-1, reference compound]
- toxicity as a single agent in MCL cells (JEKO-1 cells): did not induce significant toxicity

Compound: CC1(C)C(N(O)C(=O)Nc2ccc(Cl)cc2)N(c2ccc(Cl)cc2)C(=O)N1CC(=O)N/N=C/C=Cc1ccc([N+](=O)[O-])o1 (stereo not drawn) [EERI, 1-(4-chloro-phenyl)-3-[3-(4-chloro-phenyl)-5,5-dimethyl-1-[3-(5-nitro-furan-2-yl)-allyldiene-hydrazinocarbonylmethyl]-2-oxo-imidazolidin-4-yl]-1-hydroxyl-urea]
- activity against primary CLL cells (primary CLL cells): highly active
- IC50 [3]: ~3000 nM
- activity of atx3 purified from treated cells on exogenously added ubiquitin oligomers (Ub2-7) (atx3; DMSO- vs EerI-treated cells): equally active
- effect on atx3-mediated deubiquitination when added to purified atx3-substrate complex (atx3): had no effect
- deubiquitination of atx3-bound ubiquitin conjugates from treated cells (atx3): more resistant to deubiquitination
- polyubiquitinated HC in the cytosol [1]: polyubiquitinated HC was accumulated in the cytosol
- time after treatment at which cells start to accumulate polyubiquitinated proteins [4]: ~1.5 h
- amount of polyubiquitinated proteins accumulated for a given time period ([4]; 293T cells, FIG. 6D): more polyubiquitinated proteins than MG132-treated cells
- accumulation of polyubiquitinated proteins in cells [4]: accumulation of polyubiquitinated proteins
- form of GFPμ in treated cells (GFPμ): present almost exclusively as polyubiquitinated form
- level of NOXA protein (NOXA): rapidly increased
- retrotranslocation and degradation of MHC class I heavy chain on addition to permeabilized cells (MHC class I heavy chain): did not inhibit
- splicing of Xbp1 mRNA (Xbp1 mRNA): induced the splicing of Xbp1
- eIF2α phosphorylation (eIF2α): induced eIF2α phosphorylation
- ATF6 cleavage (ATF6): no increase in ATF6 cleavage
- polyubiquitinated TCRα-GFP (TCRα-GFP): accumulated polyubiquitinated TCRα-GFP
- effect of presence of EerI on cytotoxicity of the BH3 mimetic (JEKO-1 cells): strongly enhanced its cytotoxicity
- mRNA expression of BH3-domain proteins Noxa, Bim and Puma (JEKO cells): significantly induced
- effect on PAD [2]: blocks deubiquitination reactions associated with p97
- reduction of p97-bound polyubiquitinated substrates after in vitro incubation ([2]; substrates isolated from treated cells, non-treated cells ~60%): ~10%

Compound: CC1(C)C(N(O)C(=O)Nc2cccc3ccccc23)N(c2cccc3ccccc23)C(=O)N1CC(=O)N/N=C/C=Cc1ccc([N+](=O)[O-])o1 (stereo not drawn) [Eeyarestatin II, 1-[5,5-dimethyl-3-naphthalen-1-yl-1 [3-(5-nitro-furan-2-yl)-allyldiene-hydrazinocarbonylmethyl]-2-oxo-imidazolidin-4-yl]-3-naphthalen-1-yl-1-hydroxyl-urea]
- accumulation of polyubiquitinated proteins in cells [4]: accumulation of polyubiquitinated proteins
